Values after ≈ are worked out from the molar mass of the structure shown.
Tests used:
[1] = tested on: Plasmodium falciparum; experiment: Antiplasmodial activity after 24 hrs against chloroquine-sensitive, mefloquine-resistant Plasmodium falciparum D6 infected human erythrocytes by [G-3H]hypoxanthine uptake; format: functional, organism-based; conditions: D6, 24 h
[2] = tested on: Plasmodium falciparum; experiment: Antiplasmodial activity after 24 hrs against chloroquine-resistant, mefloquine-sensitive Plasmodium falciparum W2 infected human erythrocytes by [G-3H]hypoxanthine uptake; format: functional, organism-based; conditions: W2, 24 h
[3] = Cytotoxicity against HSF assessed as decrease in proliferation at 100 uM by MTT assay; parameters: scale not given: the % may be the effect or the level left; conditions: human
[4] = tested on: HepG2; experiment: (§1) Cytotoxicity against human HepG2 cells assessed as decrease in proliferation at 100 uM by MTT assay; format: cell-based; conditions: hepg2, 100 µM
[5] = as §1; format: cell-based; conditions: HepG2 cells, read-out: Activity

In the case of `COc1cc(O[C@@H]2O[C@H](COC(=O)c3cc(O)c(O)c(O)c3)[C@@H](O)[C@H](O)[C@H]2O)cc(OC)c1OC`, the IC50 [1] is reported as 1.75 µg/mL (≈ 3.5 µM), the IC50 [2] is reported as 1.58 µg/mL (≈ 3.18 µM) and the Activity [3] is reported as “Non-toxic”. For the same compound, the Activity [4] was “Non-toxic”.
With `O=c1oc2c(O)c(O)cc3c(=O)oc4c(O)c(O)cc1c4c23` [ELLAGIC ACID] the IC50 [1] was 0.145 µg/mL (≈ 0.48 µM), the IC50 [2] was 0.103 µg/mL (≈ 0.341 µM) and the Activity [3] was 20%. For the same compound, the inhibition at 100 µM [5] was 9%.
Work on `O=C(O)c1cc(O)c(O)c(O)c1` [GALLIC ACID] yielded an IC50 [1] of over 5 µg/mL.
Compound `OC(c1cc(C(F)(F)F)nc2c(C(F)(F)F)cccc12)C1CCCCN1` (configuration not stated) [MEFLOQUINE] has an IC50 [2] of 0.00136 µg/mL (≈ 0.00359 µM).
`O=C(O)c1ccc(O)cc1` [PARABEN] gave an IC50 [1] of over 5 µg/mL.
With `O=C(O)c1ccc(O)c(O)c1` [PROTOCATECHUIC ACID] the IC50 [1] was over 5 µg/mL.

Reference: ChEMBL document CHEMBL1150835, “In vitro antiplasmodial activity of extracts of Tristaniopsis species and identification of the active constituents: ellagic acid and 3,4,5-trimethoxyphenyl-(6'-O-galloyl)-O-beta-D-glucopyranoside” (J Nat Prod, 2001)
